In patent US8071318B2, “High throughput method and system for screening candidate compounds for activity against target ion channels” (Vertex Pharmaceuticals (San Diego) LLC, priority 2000, dated 2011):

Columns and labels:
[1] = tested on: voltage-activated chloride and potassium channels of wild-type HEK-293 cells
HL5 cells = assay type: cell-based
[2] = target: IRK1 potassium inward rectifier channel (Rattus norvegicus, UniProt Q64273)
Sequence of IRK1 potassium inward rectifier channel (Q64273 whole entry): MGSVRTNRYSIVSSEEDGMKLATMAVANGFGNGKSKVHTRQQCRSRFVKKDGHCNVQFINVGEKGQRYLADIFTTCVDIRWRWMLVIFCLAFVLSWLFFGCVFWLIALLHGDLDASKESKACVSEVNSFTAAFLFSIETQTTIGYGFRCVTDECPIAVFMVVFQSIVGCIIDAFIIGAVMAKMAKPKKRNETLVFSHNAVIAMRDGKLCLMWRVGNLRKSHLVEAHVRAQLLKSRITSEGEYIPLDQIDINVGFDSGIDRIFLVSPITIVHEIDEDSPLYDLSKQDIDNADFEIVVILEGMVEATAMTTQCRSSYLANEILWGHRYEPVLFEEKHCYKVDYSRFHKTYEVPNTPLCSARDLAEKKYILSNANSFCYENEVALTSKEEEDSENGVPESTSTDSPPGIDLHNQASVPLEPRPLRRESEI

CC[N+](CC)(CC)CC [TEA, Tetraethylammonium]
block of the negative voltage response [1]: partially blocks the response

NC1=N[C@H](O)[C@H]2[C@H]3O[C@]4(O)O[C@@H]([C@@H](O)[C@@]2(N1)[C@@H]4O)[C@]3(O)CO [TTX, tetrodotoxin]
effect on the sustained signal (HL5 cells): unaffected

[Ba+2].[Cl-].[Cl-] [barium chloride]
voltage change during stimulation with block [2]: no detectable voltage change during stimulation until the field reaches 80 V/cm
